Experimental data: patent US9988397B2, “ERK inhibitors” (Merck Sharp & Dohme Corp., priority 2014, dated 2018)

Target: phosphorylated active hERK2 enzyme (Homo sapiens, UniProt P28482)
Assay: Active human ERK2 (hERK2) Activity Assay (IMAP-FP)
Type: biochemical
Conditions: 10 point titration, 3 μM starting concentration, 0.5 nM hERK2, 30 μM ATP, 60 minutes reaction
Method: Activated ERK2 activity was determined in an IMAP-FP assay (Molecular Devices). Using this assay format, the potency (IC50) of each compound was determined from a 10 point (1:3 serial dilution, 3 μM starting compound concentration) titration curve using the following outlined procedure. […] Following a 15 minute compound & enzyme incubation, each reaction was initiated by the addition of 10 μL kinase buffer containing 2.45 μM ERK2 IMAP substrate peptides and 75 μM ATP. The final reaction in each well of 25 μL consists of 0.5 nM hERK2, 900 nM unlabeled peptide, 80 nM labeled-peptide, and 30 μM ATP. Phosphorylation reactions were allowed to proceed for 60 minutes and were immediately quenched by the addition of 60 μL IMAP detection beads (1:1000 dilutions) in IMAP binding buffer (Molecular Devices) with 24 mM NaCl. Plates were read on EnVision reader after 60 minutes binding equilibration using Fluorescence Polarization protocol (Perkin Elmer).

phosphorylated active hERK2 enzyme, sequence (P28482 whole entry): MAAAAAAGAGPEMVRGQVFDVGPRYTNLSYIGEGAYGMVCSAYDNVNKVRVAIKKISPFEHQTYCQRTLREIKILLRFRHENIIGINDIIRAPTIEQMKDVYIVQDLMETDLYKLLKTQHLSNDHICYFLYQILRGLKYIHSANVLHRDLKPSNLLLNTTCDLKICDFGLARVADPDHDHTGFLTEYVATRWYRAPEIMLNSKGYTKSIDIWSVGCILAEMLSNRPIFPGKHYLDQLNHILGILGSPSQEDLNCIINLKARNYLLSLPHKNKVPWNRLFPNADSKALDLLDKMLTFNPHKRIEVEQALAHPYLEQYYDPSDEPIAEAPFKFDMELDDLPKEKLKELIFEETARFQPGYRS

Row | SMILES | IC50 [nM]
1 | Cn1ncc2cc3nc(c21)OCCC[C@@H](O)[C@H](c1ccccc1)NC(=O)N3 [Example 24, (9S,10R)-10-Hydroxy-1-methyl-9-phenyl-1,6,8,9,10,11,12,13-octahydro-7H-5,15-(azeno)pyrazolo[3,4-c][1,7,9]oxadiazacyclotetradecin-7-one] | 190
2 | CCn1ncc2cc3nc(c21)OCCC[C@H](O)[C@H](c1ccccc1)NC(=O)N3 [Example 25, (9S,10S)-1-Ethyl-10-hydroxy-9-phenyl-1,6,8,9,10,11,12,13-octahydro-7H-5,15-(azeno)pyrazolo[3,4-c][1,7,9]oxadiazacyclotetradecin-7-one] | 24.3
3 | CCn1ncc2cc3nc(c21)OCCC[C@@H](O)[C@H](c1ccccc1)NC(=O)N3 [Example 26, (9S,10R)-1-Ethyl-10-hydroxy-9-phenyl-1,6,8,9,10,11,12,13-octahydro-7H-5,15-(azeno)pyrazolo[3,4-c][1,7,9]oxadiazacyclotetradecin-7-one] | 118
4 | CCn1ncc2cc3nc(c21)OCCC[C@](C)(O)[C@H](c1ccccc1)NC(=O)N3 [Example 27, (9S,10S)-1-Ethyl-10-hydroxy-10-methyl-9-phenyl-1,6,8,9,10,11,12,13-octahydro-7H-5,15-(azeno)pyrazolo[3,4-c][1,7,9]oxadiazacyclotetradecin-7-one] | 148
5 | CCn1ncc2cc3nc(c21)OCCC[C@@](C)(O)[C@H](c1ccccc1)NC(=O)N3 [Example 28, (9S,10R)-1-Ethyl-10-hydroxy-10-methyl-9-phenyl-1,6,8,9,10,11,12,13-octahydro-7H-5,15-(azeno)pyrazolo[3,4-c][1,7,9]oxadiazacyclotetradecin-7-one] | 144
6 | Cn1ncc2cc3nc(c21)OCCOC[C@H](c1ccccc1)NC(=O)N3 [Example 29, (9S)-1-methyl-9-phenyl-1,6,9,10,12,13-hexahydro-5,15-(azeno)pyrazolo[4,3-i][1,12,4,6]dioxadiazacyclotetradecin-7(8H)-one] | 49.2
7 | Cn1ncc2cc3nc(c21)CCCCCC(c1ccccc1)NC(=O)N3 (stereo not drawn) [Example 30, 1-Methyl-9-phenyl-1,6,9,10,11,12,13,14-octahydro-5,15-(azeno)pyrazolo[4,3-f][1,3]diazacyclotetradecin-7(8H)-one] | 230
8 | Cn1ncc2cc3nc(c21)CNCCCC(c1ccccc1)NC(=O)N3 (stereo not drawn) [Example 31, 1-Methyl-9-phenyl-1,6,9,10,11,12,13,14-octahydro-5,15-(azeno)pyrazolo[3,4-k][1,3,8]triazacyclotetradecin-7(8H)-one] | 832
9 | Cn1ncc2cc3nc(c21)COCCCC(c1ccccc1)NC(=O)N3 (stereo not drawn) [Example 32, 1-Methyl-9-phenyl-1,6,9,10,11,12-hexahydro-5,15-(azeno)pyrazolo[4,3-k][1,6,8]oxadiazacyclotetradecin-7(8H,14H)-one] | 50.9
10 | CN1CCCC(c2ccccc2)NC(=O)Nc2cc3cnn(C)c3c(n2)C1 (stereo not drawn) [Example 33, 1,13-Dimethyl-9-phenyl-1,6,9,10,11,12,13,14-octahydro-5,15-(azeno)pyrazolo[3,4-k][1,3,8]triazacyclotetradecin-7(8H)-one] | 276
11 | Cn1ncc2cc3nc(c21)Cn1cc(nn1)CC(c1ccccc1)NC(=O)N3 (stereo not drawn) [Example 34, 1-methyl-9-phenyl-1,6,9,10-tetrahydro-5,16-(azeno)-14,11-(metheno)pyrazolo[4,3-l][1,2,3,7,9]pentaazacyclopentadecin-7(8H,15H)-one] | 89.9
12 | Cn1ncc2cc3nc(c21)Cn1cc(nn1)C[C@H](c1ccccc1)NC(=O)N3 [Example 35, (9R)-1-Methyl-9-phenyl-1,6,9,10-tetrahydro-5,16-(azeno)-14,11-(metheno)pyrazolo[4,3-l][1,2,3,7,9]pentaazacyclopentadecin-7(8H,15H)-one] | 69.4
13 | COCCn1ncc2cc3nc(c21)Cn1cc(nn1)CC(c1ccccc1)NC(=O)N3 (stereo not drawn) [Example 36, 1-(2-Methoxyethyl)-9-phenyl-1,6,9,10-tetrahydro-5,16-(azeno)-14,11-(metheno)pyrazolo[4,3-l][1,2,3,7,9]pentaazacyclopentadecin-7(8H,15H)-one] | 416
14 | COCCCn1ncc2cc3nc(c21)Cn1cc(nn1)CC(c1ccccc1)NC(=O)N3 (stereo not drawn) [Example 37, 1-(3-Methoxypropyl)-9-phenyl-1,6,9,10-tetrahydro-5,16-(azeno)-14,11-(metheno)pyrazolo[4,3-l][1,2,3,7,9]pentaazacyclopentadecin-7(8H,15H)-one] | 241
15 | Cc1c2nnn1Cc1nc(cc3cnn(C)c13)NC(=O)NC(c1ccccc1)C2 (stereo not drawn) [Example 40, 1,18-Dimethyl-9-phenyl-1,6,9,10-tetrahydro-5,16-(azeno)-14,11-(metheno)pyrazolo[4,3-l][1,2,3,7,9]pentaazacyclopentadecin-7(8H,15H)-one] | 1950
16 | CCn1ncc2cc3nc(c21)/C=C\COC(C)(C)[C@H](c1ccccc1)NC(=O)N3 [Example 41, (9S,13Z)-1-Ethyl-10,10-dimethyl-9-phenyl-1,6,9,10-tetrahydro-12H-5,15-(azeno)pyrazolo [4,3-i][1,4,6]oxadiazacyclotetradecin-7(8H)-one] | 634
17 | CCn1ncc2cc3nc(c21)/C=C\COC(C)(C)[C@@H](c1ccccc1)NC(=O)N3 [Example 42, (9R,13Z)-1-Ethyl-10,10-dimethyl-9-phenyl-1,6,9,10-tetrahydro-12H-5,15-(azeno)pyrazolo [4,3-i][1,4,6]oxadiazacyclotetradecin-7(8H)-one] | 230
18 | CCn1ncc2cc3nc(c21)CC(=O)COC[C@H](c1ccccc1)NC(=O)N3 [Example 43, (9 S)-1-Ethyl-9-phenyl-1,6,9,10-tetrahydro-12H-5,15-(azeno)pyrazolo [4,3-i][1,4,6]oxadiazacyclotetradecine-7,13(8H,14H)-dione] | 11.2
19 | CCn1ncc2cc3nc(c21)CCCO[C@H]([C@@H](C)O)[C@H](c1ccccc1)NC(=O)N3 [Example 45, (9 S,10 S)-1-Ethyl-10-[(1R)-1-hydroxyethyl]-9-phenyl-1,6,9,10,13,14-hexahydro-12H-5,15-(azeno)pyrazolo[4,3-i][1,4,6]oxadiazacyclotetradecin-7(8H)-one] | 287
20 | CCn1ncc2cc3nc(c21)CCCO[C@H]([C@H](C)O)[C@H](c1ccccc1)NC(=O)N3 [Example 46, (9 S,10 S)-1-Ethyl-10-[(1 S)-1-hydroxyethyl]-9-phenyl-1,6,9,10,13,14-hexahydro-12H-5,15-(azeno)pyrazolo[4,3-i][1,4,6]oxadiazacyclotetradecin-7(8H)-one] | 48.4

Results, then the compound that gave them:

Row | IC50 [nM] | SMILES
21 | 687 | CCn1ncc2cc3nc(c21)CCCO[C@@H]([C@@H](C)O)[C@@H](c1ccccc1)NC(=O)N3 [Example 47, (9R,10R)-1-Ethyl-10-[(1R)-1-hydroxyethyl]-9-phenyl-1,6,9,10,13,14-hexahydro-12H-5,15-(azeno)pyrazolo[4,3-i][1,4,6]oxadiazacyclotetradecin-7(8H)-one]
22 | 4.11 | CCn1ncc2cc3nc(c21)CCCO[C@@H]([C@H](C)O)[C@@H](c1ccccc1)NC(=O)N3 [Example 48, (9R,10R)-1-Ethyl-10-[(1S)-1-hydroxyethyl]-9-phenyl-1,6,9,10,13,14-hexahydro-12H-5,15-(azeno)pyrazolo[4,3-i][1,4,6]oxadiazacyclotetradecin-7(8H)-one]
23 | 3.4 | CCn1ncc2cc3nc(c21)C[C@@H](O)COC[C@H](c1ccc(OC)c(F)c1)NC(=O)N3 [Example 49, (9S,13R)-1-Ethyl-9-(3-fluoro-4-methoxyphenyl)-13-hydroxy-1,6,9,10,13,14-hexahydro-12H-5,15-(azeno)pyrazolo[4,3-i][1,4,6]oxadiazacyclotetradecin-7(8H)-one]
24 | 6.28 | CCn1ncc2cc3nc(c21)C[C@H](O)COC[C@H](c1ccc(OC)c(F)c1)NC(=O)N3 [Example 50, (9S,13S)-1-Ethyl-9-(3-fluoro-4-methoxyphenyl)-13-hydroxy-1,6,9,10,13,14-hexahydro-12H-5,15-(azeno)pyrazolo[4,3-i][1,4,6]oxadiazacyclotetradecin-7(8H)-one]
25 | 3.91 | CCn1ncc2cc3nc(c21)C[C@@H](O)COC[C@H](c1cccc(F)c1)NC(=O)N3 [Example 51, (9S,13R)-1-Ethyl-9-(3-fluorophenyl)-13-hydroxy-1,6,9,10,13,14-hexahydro-12H-5,15-(azeno)pyrazolo[4,3-i][1,4,6]oxadiazacyclotetradecin-7(8H)-one]
26 | 14.5 | CCn1ncc2cc3nc(c21)C[C@H](O)COC[C@H](c1cccc(F)c1)NC(=O)N3 [Example 52, (9S,13S)-1-Ethyl-9-(3-fluorophenyl)-13-hydroxy-1,6,9,10,13,14-hexahydro-12H-5,15-(azeno)pyrazolo[4,3-i][1,4,6]oxadiazacyclotetradecin-7(8H)-one]
27 | 3.91 | CCn1ncc2cc3nc(c21)C[C@@H](O)COC[C@H](c1ccc(Cl)c(F)c1)NC(=O)N3 [Example 53, (9S,13R)-1-Ethyl-9-(4-chloro-3-fluorophenyl)-13-hydroxy-1,6,9,10,13,14-hexahydro-12H-5,15-(azeno)pyrazolo[4,3-i][1,4,6]oxadiazacyclotetradecin-7(8H)-one]
28 | 5.09 | CCn1ncc2cc3nc(c21)C[C@H](O)COC[C@H](c1ccc(Cl)c(F)c1)NC(=O)N3 [Example 54, (9S,13S)-1-Ethyl-9-(4-chloro-3-fluorophenyl)-13-hydroxy-1,6,9,10,13,14-hexahydro-12H-5,15-(azeno)pyrazolo[4,3-i][1,4,6]oxadiazacyclotetradecin-7(8H)-one]
29 | 3.83 | CCn1ncc2cc3nc(c21)C[C@@H](O)COC[C@H](c1cccc(Cl)c1)NC(=O)N3 [Example 55, (9S,13R)-9-(3-chlorophenyl)-1-ethyl-13-hydroxy-1,6,9,10,13,14-hexahydro-12H-5,15-(azeno)pyrazolo[4,3-i][1,4,6]oxadiazacyclotetradecin-7(8H)-one]
30 | 0.996 | CCn1ncc2cc3nc(c21)C[C@H](O)COC[C@H](c1cccc(Cl)c1)NC(=O)N3 [Example 56, (9S,13S)-9-(3-chlorophenyl)-1-ethyl-13-hydroxy-1,6,9,10,13,14-hexahydro-12H-5,15-(azeno)pyrazolo[4,3-i][1,4,6]oxadiazacyclotetradecin-7(8H)-one]
